Values quoted from earlier work as cited in US20190275033A1 (Boehringer Ingelheim International GmbH, priority 2016, published 2019).

System: IPF patients
Conditions: cited from earlier work

Cc1ccc(=O)n(-c2ccccc2)c1 [pirfenidone, 5-methyl-1-phenyl-2(1H)-Pyridinone]
primary endpoint of change from baseline FVC % predicted (ASCEND Phase III trial): met the primary endpoint
primary FVC lung function endpoint (international Phase III CAPACITY program): efficacy on the primary FVC lung function endpoint in only one of two confirmatory trials
decline of vital capacity (two local trials, Japan): reduced decline
